Experimental data published in US10364255B2, “Heteroaromatic compounds as Vanin inhibitors” (Boehringer Ingelheim International GmbH, priority 2017, dated 2019).
Like-named read-outs stand apart in the source and are kept apart here.

Assays:
[1] = biological target: FLAG-tagged Vanin-1 (AA 22-493, T26I) (Homo sapiens (Human), UniProt O95497, T26I); assay: Vanin-1 enzymatic assay (pantothenic acid formation, RapidFire Mass Spectrometry); type: biochemical; settings: read-out: VNN 1 IC50
Protocol: The test compounds are dissolved in 100% DMSO at a concentration of 10 mM and in a first step diluted in DMSO to a concentration of 5 mM, followed by serial dilution steps in 100% DMSO. Dilution factor and number of dilution steps may vary according to needs. Typically 8 different concentrations by 1:5 dilutions are prepared, a further intermediate dilutions of the substances is carried out with assay buffer resulting in 1% final DMSO concentration in the assay.
Method 1): 0.15 nM of FLAG-tagged Vanin-1 (AA 22-493, T26I, produced internally) and test compounds are incubated at room temperature for 15 minutes in assay buffer (1 mM DTT, 0.0025% Brij-35, 50 mM HEPES, pH7.5). 3 μM D-Pantethine (Sigma, Cat#P2125-5G) in assay buffer is added and incubated for additional 30 minutes at room temperature. Reaction is stopped by adding equal volume of stop solution as the reaction mixture to reach 5 nM Nevirapine (as an internal standard) and 0.5% TFA. Assay plates are centrifuged for 2 minutes and the formation of pantothenic acid is detected by RapidFire Mass Spectrometry (mobile phase A: 0.1% formic acid in water, mobile phase B: 100% methanol) using graphitic carbon cartridge (Agilent Cat #G9206A).
Method 2): 0.1 nM of FLAG-tagged Vanin-1 (AA 22-493, T26I, produced internally) and test compounds are incubated at room temperature for 20 minutes in assay buffer (1 mM DTT, 0.0025% Brij-35, 50 mM HEPES, pH7.5). D-Pantethine (Sigma, Cat#P2125-5G) in assay buffer is added (final concentration 3 μM) and incubated for additional 30 minutes at room temperature. Total assay volume typically is 40 μl but might be adjusted according to needs. Reaction is stopped by adding equal volume of stop solution as the reaction mixture to reach 100 nM HD-pantothenic acid (as an internal standard) and 1% TFA. Assay plates are centrifuged for 2 minutes and the formation of pantothenic acid is detected by RapidFire Mass Spectrometry (mobile phase A: 0.1% formic acid and 0.01% trifluoroacetic acid in water; mobile phase B: 47.5% acetonitrile, 47.5% methanol, 0.1% formic acid and 0.01% trifluoroacetic acid in water) using a C18, 12 μL cartridge (Agilent Cat #G9205A).
The values given in Table I result from measurements of one or more samples. In case of multiple measurements the geometric mean values determined by method 1 and/or method 2 are given.

human whole blood = assay: Human Whole Blood assay (HWB; pantothenic acid formation from D-Pantethine); type: cell-based; settings: 10 μM D-Pantethine, 30 minutes at room temperature, geometric mean if multiple measurements
Protocol: 250 μl human whole blood and 7 μl pre-diluted compound in RPMI 1640 media are incubated at room temperature for 15 minutes on an orbital shaker. 10 μl of D-Pantethine (Sigma, Cat#P2125-5G) is added, resulting in 10 μM final concentration, for additional 30 minutes incubation at room temperature. The reaction is stopped by placed on ice for 5 minutes. Assay plates are centrifuged at 1800 rpm at 4° C. for 10 minutes. 80 μl of plasma is mixed with 80 μl of ice-cold acetonitrile and is left on ice for 5 minutes. The reaction mixture is centrifuged at 4000 rpm for 10 min at 4° C. 50 μl of the supernatant is mixed with 150 μl of ice-cold H2O. The above solution is mixed with equal volume of stop solution to reach 5 nM Nevirapine (as an internal standard) and 0.4% TFA. The mixture is centrifuged at 4000 rpm for 10 minutes. The formation of pantothenic acid is detected by RapidFire Mass Spectrometry (mobile phase A: 0.1% Formic acid in water, mobile phase B: 100% Methanol) using graphitic carbon cartridge (Agilent Cat #G9206A). Please see Table I for results. The values given in Table I result from measurements of one or more samples. In case of multiple measurements the geometric mean values are given.

[2] = VNN1-assay method 1: 0.15 nM Vanin-1, 15 min preincubation, 3 μM D-Pantethine, geometric mean if multiple measurements
[3] = VNN1-assay method 2: 0.1 nM Vanin-1, 20 min preincubation, 3 μM D-Pantethine, geometric mean if multiple measurements
[4] = VNN1-assay methods 1 + 2: geometric mean of values determined by method 1 and method 2

Sequence of FLAG-tagged Vanin-1 (AA 22-493, T26I) (O95497 22-493 T26I): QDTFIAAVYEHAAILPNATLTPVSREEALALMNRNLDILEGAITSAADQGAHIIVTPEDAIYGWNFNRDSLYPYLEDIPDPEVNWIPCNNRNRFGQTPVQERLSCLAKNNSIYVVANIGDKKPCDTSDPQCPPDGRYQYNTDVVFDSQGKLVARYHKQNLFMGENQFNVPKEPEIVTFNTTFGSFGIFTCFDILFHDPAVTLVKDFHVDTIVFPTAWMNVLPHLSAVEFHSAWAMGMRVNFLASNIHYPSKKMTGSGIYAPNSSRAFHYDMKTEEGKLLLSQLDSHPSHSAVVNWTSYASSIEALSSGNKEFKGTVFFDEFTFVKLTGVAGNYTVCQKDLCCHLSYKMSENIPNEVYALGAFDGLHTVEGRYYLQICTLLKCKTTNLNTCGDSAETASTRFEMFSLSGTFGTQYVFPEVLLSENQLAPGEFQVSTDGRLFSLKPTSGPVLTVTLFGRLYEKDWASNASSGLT

IC50 [1, 2] [nM]	IC50 (human whole blood; Homo sapiens, 0.5 h) [nM]	IC50 [1, 3] [nM]	IC50 [1, 4] [nM]	SMILES	IC50 (human whole blood) [nM]
–	66	–	–	O=C(c1cnc2c(c1)O[C@H](CO)CN2)N1CCC(c2ccncc2)C1 (some centres unmarked) [Example 43]	–
8.9	99	–	–	CC[C@@H]1COc2cc(C(=O)N3CCC(c4ccncc4)C3)cnc2N1 (some centres unmarked) [Example 6]	–
0.4	–	–	–	O=C(c1cnc2c(c1)OCC1(CC1)N2)N1CCC(c2ccncc2)C1 (single isomer, unassigned) [Example 22]	37
–	44	–	3.5	C[C@H]1CNc2ncc(C(=O)N3CCC(c4ccncc4)C3)cc2O1 (some centres unmarked) [Example 34]	–
2.5	34	–	–	C[C@@H]1CNc2ncc(C(=O)N3CCC(c4ccncc4)C3)cc2O1 (some centres unmarked) [Example 33]	–
17.2	–	–	–	CC(C)[C@@H]1COc2cc(C(=O)N3CCC(c4ccncc4)C3)cnc2N1 (some centres unmarked) [Example 8]	–
2.4	146	–	–	CC(C)[C@H]1COc2cc(C(=O)N3CCC(c4ccncc4)C3)cnc2N1 (some centres unmarked) [Example 10]	–
3.8	168	–	–	C[C@@H]1COc2cc(C(=O)N3CCC(c4cccnc4)C3)cnc2N1 (some centres unmarked) [Example 28]	–
–	76	–	3.1	CC[C@H]1COc2cc(C(=O)N3CCC(c4ccncc4)C3)cnc2N1 (some centres unmarked) [Example 5]	–
–	190	–	26.1	CC(=O)N(C)[C@H]1CCN(C(=O)c2cnc3c(c2)O[C@@H](C)CN3)C1 [Example 35]	–
–	87	–	1.7	C[C@H]1COc2cc(C(=O)N3CCC(c4ccncc4)C3)cnc2N1 (some centres unmarked) [Example 40]	–
–	210	–	–	O=C(c1cnc2c(c1)OCCN2)N1CCC(c2ccncc2)C1 (centres unmarked) [Example 38]	–
1.9	–	–	–	O=C(c1cnc2c(c1)OCC1(CC1)N2)N1CCC(c2ccncc2)C1 (single isomer, unassigned) [Example 20]	130

Further lines, the compound ahead of its results:

SMILES	IC50 [1, 2] [nM]	IC50 (human whole blood; Homo sapiens, 0.5 h) [nM]	IC50 [1, 3] [nM]	IC50 [1, 4] [nM]	IC50 (human whole blood) [nM]
O=C(c1cnc2c(c1)OC[C@H](c1ccccc1)N2)N1CCC(c2ccncc2)C1 (single isomer, unassigned) [Example 11]	19	–	–	–	3700
O=C(c1cnc2c(c1)OCCC1(CC1)N2)N1CC[C@H](N2CCOC2=O)C1 [Example 26]	–	5.9	0.2	–	–
O=C(c1cnc2c(c1)OCC1(CC1)N2)N1CC[C@H](N2CCCC2=O)C1 [Example 15]	–	7.8	0.7	–	–
CC(=O)N(C)[C@H]1CCN(C(=O)c2cnc3c(c2)O[C@H](C)CN3)C1 [Example 32]	–	14	–	–	–
CC[C@H]1COc2cc(C(=O)N3CC[C@H](N(C)C(C)=O)C3)cnc2N1 [Example 4]	1.3	22	–	–	–
O=C(c1cnc2c(c1)OCC1(CC1)N2)N1CC[C@H](N2CCOC2=O)C1 [Example 16]	–	8.9	0.6	–	–
CN1C(=O)CC[C@@]12CCN(C(=O)c1cnc3c(c1)OCCC1(CC1)N3)C2 [Example 24]	–	6.5	0.6	–	–
CC(=O)N(C)[C@H]1CCN(C(=O)c2cnc3c(c2)OCCCN3)C1 [Example 44]	–	23	–	–	–
CN(C(=O)C1CC1)[C@H]1CCN(C(=O)c2cnc3c(c2)OCC2(CC2)N3)C1 [Example 17]	–	8.8	0.7	–	–
CN([C@H]1CCN(C(=O)c2cnc3c(c2)OCC2(CC2)N3)C1)S(=O)(=O)C1CC1 [Example 19]	–	39	2.3	–	–
O=C(c1cnc2c(c1)OCCC1(CC1)N2)N1CC[C@H](N2CCCC2=O)C1 [Example 25]	–	3.1	0.1	–	–
CC[C@@H]1COc2cc(C(=O)N3CC[C@H](N(C)C(C)=O)C3)cnc2N1 [Example 1]	–	20	–	3.3	–
CN(C(=O)C1COC1)[C@H]1CCN(C(=O)c2cnc3c(c2)OCC2(CC2)N3)C1 [Example 18]	–	12	0.9	–	–
CC(=O)N(C)[C@H]1CCN(C(=O)c2cnc3c(c2)OC[C@H](c2ccccc2)N3)C1 [Example 30]	–	43	–	2.4	–
CC(=O)N(C)[C@H]1CCN(C(=O)c2cnc3c(c2)OC[C@@H](C)N3)C1 [Example 29]	–	28	–	3.3	–
CC(=O)N(C)[C@H]1CCN(C(=O)c2cnc3c(c2)OC[C@@H](C(C)C)N3)C1 [Example 2]	3.6	26	–	–	–
CC(=O)N(C)[C@H]1CCN(C(=O)c2cnc3c(c2)OC[C@H](C(C)C)N3)C1 [Example 9]	1.5	23	–	–	–
CC(=O)N(C)[C@H]1CCN(C(=O)c2cnc3c(c2)OC[C@H](C)N3)C1 [Example 13]	–	23	–	1.8	–
CN1C(=O)CCC12CCN(C(=O)c1cnc3c(c1)OCCC1(CC1)N3)C2 (centres unmarked) [Example 27]	–	11	1.09	–	–
O=C(c1cnc2c(c1)OC[C@@H](c1ccccc1)N2)N1CCC(c2ccncc2)C1 (some centres unmarked) [Example 7]	6200	–	–	–	–
CN1C(=O)CC[C@]12CCN(C(=O)c1cnc3c(c1)OCCC1(CC1)N3)C2 [Example 23]	–	50	8.1	–	–
CC(=O)N(C)[C@H]1CCN(C(=O)c2cnc3c(c2)OC[C@@H](c2ccccc2)N3)C1 [Example 31]	–	–	–	1750	–
CC(=O)N(C)[C@H]1CCN(C(=O)c2cnc3c(c2)OCC2(CC2)N3)C1 [Example 21]	–	10	–	0.4	–
CC(=O)N(C)[C@H]1CCN(C(=O)c2cnc3c(c2)OCC(C)(C)N3)C1 [Example 14]	–	12	–	–	–
CC(=O)N(C)[C@H]1CCN(C(=O)c2cnc3c(c2)OCC(C)(C)CN3)C1 [Example 42]	–	16	–	1.1	–
CC(=O)N(C)[C@H]1CCN(C(=O)c2cnc3c(c2)O[C@H](CO)CN3)C1 [Example 41]	–	18	–	–	–
CC(=O)N(C)[C@H]1CCN(C(=O)c2cnc3c(c2)OCCN3)C1 [Example 39]	–	120	–	–	–
CC(=O)N(C)[C@H]1CCN(C(=O)c2cnc3c(c2)OCCC2(CC2)N3)C1 [Example 37]	–	6.3	–	0.2	–
O=C(c1cnc2c(c1)OC[C@H](c1ccccc1)N2)N1CCC(c2ccncc2)C1 (single isomer, unassigned) [Example 12]	1.8	–	–	–	330
